Our source for the T/C values is PubChem BioAssay AID328 (DTP/NCI, 2004).

This assay relates to BDF1 mice, P388 leukemia ip, median survival T/C. Briefly: NCI In Vivo Anticancer Drug Screen. Data for tumor model P388 Leukemia (intraperitoneal) in B6D2F1 (BDF1) mice. The conditions noted are these: endpoint: median survival time, higher = longer survival. In outline:
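Survival ratio, drug arm over vehicle arm, in mice with a transplanted tumour.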

Setting [1] is: dose: 6.25 mg/kg/injection, schedule: Q01DX009 (ip), vehicle: Klucel (hydroxypropylcellulose) (HPC).
Where [2] appears, read: dose: 12.5 mg/kg/injection, schedule: Q01DX009 (ip), vehicle: Klucel (hydroxypropylcellulose) (HPC).
The mark [3] stands for this setting: dose: 25.0 mg/kg/injection, schedule: Q01DX009 (ip), vehicle: Klucel (hydroxypropylcellulose) (HPC).
The mark [4] stands for this setting: dose: 100.0 mg/kg/injection, schedule: Q04DX003 (ip), vehicle: Klucel (hydroxypropylcellulose) (HPC).
The mark [5] stands for this setting: dose: 200.0 mg/kg/injection, schedule: Q04DX003 (ip), vehicle: saline with Tween-80.
Setting [6] is: dose: 400.0 mg/kg/injection, schedule: Q04DX003 (ip), vehicle: saline with Tween-80.
The mark [7] stands for this setting: dose: 50.0 mg/kg/injection, schedule: Q01DX009 (ip), vehicle: saline.
The mark [8] stands for this setting: dose: 100.0 mg/kg/injection, schedule: Q01DX009 (ip), vehicle: saline.
Where [9] appears, read: dose: 200.0 mg/kg/injection, schedule: Q01DX009 (ip), vehicle: saline.
Setting [10] is: dose: 100.0 mg/kg/injection, schedule: Q01DX009 (ip), vehicle: Klucel (hydroxypropylcellulose) (HPC).
[11] abbreviates: dose: 200.0 mg/kg/injection, schedule: Q01DX009 (ip), vehicle: Klucel (hydroxypropylcellulose) (HPC).
The mark [12] stands for this setting: dose: 400.0 mg/kg/injection, schedule: Q01DX009 (ip), vehicle: Klucel (hydroxypropylcellulose) (HPC).
[13] abbreviates: dose: 50.0 mg/kg/injection, schedule: Q01DX009 (ip), vehicle: saline with Tween-80.
Setting [14] is: dose: 100.0 mg/kg/injection, schedule: Q01DX009 (ip), vehicle: saline with Tween-80.
Setting [15] is: dose: 200.0 mg/kg/injection, schedule: Q01DX009 (ip), vehicle: saline with Tween-80.
[16] abbreviates: dose: 12.5 mg/kg/injection, schedule: Q01DX009 (ip), vehicle: saline with Tween-80.
The mark [17] stands for this setting: dose: 25.0 mg/kg/injection, schedule: Q01DX009 (ip), vehicle: saline with Tween-80.
The mark [18] stands for this setting: dose: 100.0 mg/kg/injection, schedule: Q04DX003 (ip), vehicle: saline.
The mark [19] stands for this setting: dose: 200.0 mg/kg/injection, schedule: Q04DX003 (ip), vehicle: saline.
The mark [20] stands for this setting: dose: 400.0 mg/kg/injection, schedule: Q04DX003 (ip), vehicle: saline.

Several values for one entry are separate records, joined by “and”; a condition that tells them apart may be missing. Equal entries are not always repeated. Toxic doses and inconclusive results are not listed.

For the molecule `COc1ccc2c(c1OC)C1(CCN(C)C)CC(=O)CCC1C=C2` (stereo not drawn), the T/C is 90 % of control under setting [1]; 105 % of control under setting [2]; 86 % of control (dose: 12.5 mg/kg/injection, schedule: Q04DX003 (ip), vehicle: Klucel (hydroxypropylcellulose) (HPC)); 100 % of control under setting [3]; 108 % of control (dose: 25.0 mg/kg/injection, schedule: Q04DX003 (ip), vehicle: Klucel (hydroxypropylcellulose) (HPC)); 113 % of control (dose: 35.0 mg/kg/injection, schedule: Q01DX009 (ip), vehicle: Klucel (hydroxypropylcellulose) (HPC)). The T/C is, setting by setting: (dose: 50.0 mg/kg/injection, schedule: Q04DX003 (ip), vehicle: Klucel (hydroxypropylcellulose) (HPC)) 100 % of control; (dose: 55.0 mg/kg/injection, schedule: Q01DX009 (ip), vehicle: Klucel (hydroxypropylcellulose) (HPC)) 118 % of control; (dose: 80.0 mg/kg/injection, schedule: Q01DX009 (ip), vehicle: Klucel (hydroxypropylcellulose) (HPC)) 118 % of control; under setting [4], 95 % of control; (dose: 120.0 mg/kg/injection, schedule: Q01DX009 (ip), vehicle: Klucel (hydroxypropylcellulose) (HPC)) 100 % of control; (dose: 180.0 mg/kg/injection, schedule: Q01DX009 (ip), vehicle: Klucel (hydroxypropylcellulose) (HPC)) 108 % of control.
On to `O=C1C2CCCCC1C(N1CCCC1)CC2` (stereo not drawn), for which the T/C is 100 % of control (dose: 100.0 mg/kg/injection, schedule: Q04DX003 (sc), vehicle: olive oil, sesame oil, peanut oil); 86 % of control (dose: 200.0 mg/kg/injection, schedule: Q04DX003 (sc), vehicle: olive oil, sesame oil, peanut oil); 100 % of control (dose: 400.0 mg/kg/injection, schedule: Q04DX003 (sc), vehicle: olive oil, sesame oil, peanut oil).
In the case of `CC[C@@]12CCCN3CC[C@]4(c5cccc(OC)c5N(C(C)=O)[C@@H]4CC1)[C@H]32`, the T/C by setting is: under setting [1], 100 % of control; under setting [2], 95 % of control; under setting [3], 104 % of control; (dose: 50.0 mg/kg/injection, schedule: Q01DX001 (ip), vehicle: Klucel (hydroxypropylcellulose) (HPC)) 108 % of control; (dose: 100.0 mg/kg/injection, schedule: Q01DX001 (ip), vehicle: Klucel (hydroxypropylcellulose) (HPC)) 116 % of control; (dose: 200.0 mg/kg/injection, schedule: Q01DX001 (ip), vehicle: Klucel (hydroxypropylcellulose) (HPC)) 91 % of control.
In the case of `Cc1ccc(NC(=O)c2ccccc2C(=O)O)c(C)c1`, the T/C is 100 % of control (dose: 100.0 mg/kg/injection, schedule: Q04DX003 (ip), vehicle: saline with Tween-80); 100 % of control under setting [5]; 118 % of control under setting [6].
With `CC12CCC(O)CC1CCC1C2CCC2(C)C(C3=CC(=O)OC3)CCC12O` (stereo not drawn), the T/C is, setting by setting: (dose: 2.0 mg/kg/injection, schedule: Q01DX009 (ip), vehicle: Klucel (hydroxypropylcellulose) (HPC)) 90 % of control; (dose: 2.0 mg/kg/injection, schedule: Q01DX010 (ip), vehicle: carboxymethylcellulose (CMC)) 95 % of control; (dose: 4.0 mg/kg/injection, schedule: Q01DX009 (ip), vehicle: Klucel (hydroxypropylcellulose) (HPC)) 105 % of control; (dose: 8.0 mg/kg/injection, schedule: Q01DX009 (ip), vehicle: Klucel (hydroxypropylcellulose) (HPC)) 112 % of control; (dose: 8.0 mg/kg/injection, schedule: Q01DX010 (ip), vehicle: carboxymethylcellulose (CMC)) 104 % of control.
For `NCCCC(N)(CO)C(=O)O` (stereo not drawn), the T/C under setting [7] is 91 % of control, the T/C under setting [8] is 97 % of control and the T/C under setting [9] is 100 % of control.
For `CCOC(=O)CCC(NC(=O)Cc1ccc(NC(=O)C(F)(F)F)cc1)C(=O)OCC` (stereo not drawn), the T/C by setting is: under setting [10], 100 % of control; under setting [11], 95 % of control; under setting [12], 104 % of control.
In the same order, the values of `Cc1ccc([N+](=O)[O-])cc1NC(=O)Nc1ccc(S(N)(=O)=O)cc1` are 100 % of control, 100 % of control and 100 % of control.
Take `CC(=O)[C@H]1CC[C@H]2[C@@H]3C[C@H](F)C4=CC(=O)CC[C@]4(C)[C@H]3C(=O)C[C@]12C`: the T/C is 112 % of control under setting [13]; 104 % of control under setting [14]; 116 % of control under setting [15]; 100 % of control under setting [5]; 111 % of control under setting [6].
In the case of `Clc1ccc(C(c2ccc(Cl)cc2)C(Cl)(Cl)Cl)cc1`, the T/C under setting [16] is 102 % of control, the T/C under setting [17] was 102 % of control and the T/C under setting [13] is 88 % of control.
As to `O=C(Nc1ccc(NC(=O)Nc2cccc(C3=NCCN3)c2)cc1)Nc1cccc(C2=NCCN2)c1`, the T/C runs as follows: (dose: 60.0 mg/kg/injection, schedule: Q01DX010 (ip), vehicle: saline) 165 % of control and 190 % of control; (dose: 120.0 mg/kg/injection, schedule: Q01DX010 (ip), vehicle: saline) 160 % of control and 175 % of control; (dose: 240.0 mg/kg/injection, schedule: Q01DX010 (ip), vehicle: saline) 175 % of control and 190 % of control; (dose: 480.0 mg/kg/injection, schedule: Q01DX010 (ip), vehicle: saline) 250 % of control and 300 % of control.
As for `CC(C)(C)c1ccc(C(c2ccc(C(C)(C)C)cc2)C(Cl)Cl)cc1`, the T/C is 91 % of control under setting [4]; 91 % of control (dose: 200.0 mg/kg/injection, schedule: Q04DX003 (ip), vehicle: Klucel (hydroxypropylcellulose) (HPC)); 95 % of control (dose: 400.0 mg/kg/injection, schedule: Q04DX003 (ip), vehicle: Klucel (hydroxypropylcellulose) (HPC)).
As to `COc1ccc(NC(=O)Nc2c(Oc3ccc(Cl)cc3)ccc(Cl)c2S(=O)(=O)O)cc1Cl`, the T/C (dose: 25.0 mg/kg/injection, schedule: Q01DX009 (ip), vehicle: saline) is 109 % of control; the T/C under setting [7] is 86 % of control; the T/C under setting [8] was 104 % of control.
In the case of `CC1(C)N=C(N)N=C(N)N1c1ccc(CNC(=O)Nc2ccc(S(=O)(=O)F)cc2)cc1`, the T/C is, setting by setting: under setting [8], 115 % of control; under setting [18], 150 % of control; (dose: 132.0 mg/kg/injection, schedule: Q04DX003 (ip), vehicle: saline) 181 % of control and 190 % of control; under setting [9], 100 % of control; under setting [19], 150 % of control and 177 % of control and 205 % of control; (dose: 300.0 mg/kg/injection, schedule: Q04DX003 (ip), vehicle: saline) 230 % of control and 154 % of control. In addition, under setting [20], the T/C was 163 % of control.
As for `CSCC(N)CO` (stereo not drawn), the T/C reads like this: (dose: 25.0 mg/kg/injection, schedule: Q04DX003 (ip), vehicle: saline) 104 % of control; (dose: 50.0 mg/kg/injection, schedule: Q04DX003 (ip), vehicle: saline) 111 % of control and 116 % of control; under setting [18], 116 % of control; under setting [19], 109 % of control and 111 % of control; under setting [20], 90 % of control and 120 % of control.
As to `C=CC(C)C(C)(OCc1ccccc1)C(=O)O` (stereo not drawn), the T/C (dose: 50.0 mg/kg/injection, schedule: Q01DX005 (ip), vehicle: saline with Tween-80) was 100 % of control; the T/C (dose: 100.0 mg/kg/injection, schedule: Q01DX005 (ip), vehicle: saline with Tween-80) is 113 % of control; the T/C (dose: 200.0 mg/kg/injection, schedule: Q01DX005 (ip), vehicle: saline with Tween-80) is 106 % of control.
As to `CCOC(=O)Nc1nc2ccccc2[nH]1`, the T/C runs as follows: (dose: 6.25 mg/kg/injection, schedule: Q01DX009 (ip), vehicle: saline with Tween-80) 98 % of control; under setting [16], 116 % of control; under setting [17], 109 % of control; under setting [13], 105 % of control.
On to `CCOC(=O)c1c(C)cc(C)nc1[S][Sn]([Cl])([Cl])[S]c1nc(C)cc(C)c1C(=O)OCC`, for which the T/C is 99 % of control under setting [13], 107 % of control under setting [14] and 106 % of control under setting [15].
